Results: patent US7611832B2, “Human G protein-coupled receptor and modulators thereof for the treatment of ischemic heart disease and congestive heart failure” (Arena Pharmaceuticals, Inc., priority 2002, dated 2009)

Legend:
RUP41 mRNA in NRVMs = experiment: Northern blot of RUP41 mRNA in NRVMs treated with hypertrophic agents; details: 24 hour treatment; PE 100 μM, PMA 100 nM, PGF2α 1 μM, NCS 10%
[1] = tested on: RUP41 transcript in neonatal rat ventricular myocytes (NRVMs); experiment: RT-PCR of RUP41 transcript in NRVMs treated with hypertrophic agents; type: cell-based; details: 24 hours after addition to media; phenylephrine 100 μM, newborn calf serum 10%
Procedure: Total RNA isolated from NRVMs as described above was used as a template for generation of reverse transcribed DNA (RT-DNA) using the RT for PCR kit (Becton Dickenson) according to manufacturers instructions. RUP41 expression was detected in RT-DNA samples by PCR. PCR conditions were 96° C. for 2 min, followed by 30 cycles of 96° C. for 30 sec, 55° C. for 30 sec, and 72° C. for 2 min, followed by 72° C. for 10 min. 20 μl of the reaction was loaded onto 1.5% agarose gel to analyze the RT-PCR products.

## CNC[C@H](O)c1cccc(O)c1 [phenylephrine]
RUP41 mRNA in NRVMs
  RUP41 mRNA expression (Northern blot): decreased level
[1]
  RUP41 transcript levels (RT-PCR): drop dramatically

## CCCCCCCCCCCCCC(=O)O[C@@H]1[C@@H](C)[C@@]2(O)[C@@H](C=C(CO)C[C@]3(O)C(=O)C(C)=C[C@@H]23)[C@@H]2C(C)(C)[C@]12OC(C)=O [phorbol 12-myristate 13-acetate]
RUP41 mRNA in NRVMs
  RUP41 mRNA expression (Northern blot): decreased level

## prostaglandin F2α
RUP41 mRNA in NRVMs
  RUP41 mRNA expression (Northern blot): decreased level
